Results published in paper PMC8952364, “Polyphenols as Inhibitors of Antibiotic Resistant Bacteria—Mechanisms Underlying Rutin Interference with Bacterial Virulence” (Pharmaceuticals, 2022).
In brackets after ≈: the same amount, converted by molar mass. Where two headings read alike, the source gives them in different places.

How the values were obtained:
S. infantis 1371/1 = assay: Antimicrobial microdilution assay (MIC/MBC); assay type: cell-based, Salmonella Infantis; conditions: Salmonella enterica, 1371/1; for MIC: 37 °C, 24 h, read-out: MIC; for MBC: subcultivation, 24 h at 37 °C, read-out: MBC
Experimental: (§1) The bacterial suspension (0.5 Mc Farland) was prepared, and twenty-fold dilutions of these suspensions were mixed in a 1:10 ratio with the corresponding polyphenol dilution (0.0039–1 mg/mL). Microtiter plates were incubated at 37 °C for 24 h. The lowest concentrations without visible growth (under a binocular microscope) were defined as MICs. The bactericidal concentrations (MBCs) were determined by serial subcultivation of 2 μL of the well’s content and further incubation for 24 h at 37 °C. Streptomycin (SigmaAldrich, Darmstadt, Germany) was used as a positive control. The polyphenols were obtained from Extrasynthese, Rhone, France (rutin, isoquercitrin) and SigmaAldrich, Germany (hesperetin, hesperidin, naringenin, naringin, taxifolin, morin, chlorogenic acid, ferulic acid, p-coumaric acid, and gallic acid). The stock compounds were prepared in ethanol (30%), and adequate ethanol concentrations were used as the negative control in the assays. Experiments were done in triplicate.

[1] = test system: Methicillin resistant S. aureus IBRS MRSA 011; assay: Antimicrobial microdilution assay (MIC/MBC); assay type: cell-based, Staphylococcus aureus
Experimental: as §1

E. coli IBRS E003 = assay: Antimicrobial microdilution assay (MIC/MBC); assay type: cell-based, Escherichia coli; conditions: Escherichia coli, IBRSE003; for MIC: 37 °C, 24 h, read-out: MIC; for MBC: subcultivation, 24 h at 37 °C, read-out: MBC
Experimental: as §1

E. coli IMD989 = assay: Antimicrobial microdilution assay (MIC/MBC); assay type: cell-based, Escherichia coli; conditions: Escherichia coli, IMD989; for MIC: 37 °C, 24 h, read-out: MIC; for MBC: subcultivation, 24 h at 37 °C, read-out: MBC
Experimental: as §1

P. aeruginosa MMA83 = assay: Antimicrobial microdilution assay (MIC/MBC); assay type: cell-based, Pseudomonas aeruginosa; conditions: Pseudomonas aeruginosa, MMA83; for MIC: 37 °C, 24 h, read-out: MIC; for MBC: subcultivation, 24 h at 37 °C, read-out: MBC
Experimental: as §1

P. aeruginosa IBRS P001 = assay: Antimicrobial microdilution assay (MIC/MBC); assay type: cell-based, Pseudomonas aeruginosa; conditions: Pseudomonas aeruginosa, IBRSP001; for MIC: 37 °C, 24 h, read-out: MIC; for MBC: subcultivation, 24 h at 37 °C, read-out: MBC
Experimental: as §1

HaCaT cells = assay: Cytotoxicity in HaCaT cell line (crystal violet assay); assay type: cell-based, human; conditions: for IC50: Homo sapiens, HaCaT, 24 h treatment, crystal violet, read-out: IC50 (compound concentration that inhibited 50% of the cell growth)
Experimental: For determination of the polyphenols’ cytotoxic effect, a crystal violet assay was used, with modifications. The cytotoxic effect of polyphenols was analyzed on spontaneously immortalized human skin keratinocytes (HaCaT, AddexBio No. T0020001, San Diego, CA, USA) cell lines. […] Cells (1 × 10^4 cells/well) were seeded in a 96-well plate (Sarstedt, Nümbrecht, Germany) 24 h before treatment. […] Cells were incubated with the compounds for 24 h. […] After crystal violet was removed, the plates were washed in a stream of tap water and left to air-dry at room temperature for 24 h. The absorbance was measured in a microplate reader (Multiskan™ FC Microplate Photometer, Thermo Scientific™) at 590 nm. The results were expressed as IC50 value in μg/mL. The criterion used to categorize the cytotoxic activity polyphenols was as follows: […] All analyses were performed in triplicate; each replicate was also quantified three times. Data were expressed as mean standard deviation, where applicable.

A. baumannii S2/2 = assay: Antimicrobial microdilution assay (MIC/MBC); assay type: cell-based, Acinetobacter baumannii; conditions: Acinetobacter baumannii, S2/2; for MIC: 37 °C, 24 h, read-out: MIC; for MBC: subcultivation, 24 h at 37 °C, read-out: MBC
Experimental: as §1

A. baumannii 6077/12 = assay: Antimicrobial microdilution assay (MIC/MBC); assay type: cell-based, Acinetobacter baumannii; conditions: Acinetobacter baumannii, 6077/12; for MIC: 37 °C, 24 h, read-out: MIC; for MBC: subcultivation, 24 h at 37 °C, read-out: MBC
Experimental: as §1

A. xylosoxidans 37F = assay: Antimicrobial microdilution assay (MIC/MBC); assay type: cell-based, Achromobacter xylosoxidans; conditions: Achromobacter xylosoxidans, 37F; for MIC: 37 °C, 24 h, read-out: MIC; for MBC: subcultivation, 24 h at 37 °C, read-out: MBC
Experimental: as §1

K. pneumoniae Ni9 = assay: Antimicrobial microdilution assay (MIC/MBC); assay type: cell-based, Klebsiella pneumoniae; conditions: Klebsiella pneumoniae, NI9; for MIC: read-out: MIC; for MBC: subcultivation, 24 h at 37 °C, read-out: MBC
Experimental: as §1

K. pneumoniae IT977 = assay: Antimicrobial microdilution assay (MIC/MBC); assay type: cell-based, Klebsiella pneumoniae; conditions: Klebsiella pneumoniae, IT977; for MIC: read-out: MIC; for MBC: subcultivation, 24 h at 37 °C, read-out: MBC
Experimental: as §1

[2] = test system: eleven antibiotic resistant strains of bacteria; assay: Antimicrobial assay, summary over the examined strains; assay type: cell-based; conditions: summary of Table 1
Experimental: as §1

[3] = test system: Escherichia coli K-12 MG1655, Salmonella enterica serovar Typhimurium LT2, and Pseudomonas putida ATCC 795; set-up: method as in PMID 18045389; conditions: cited from earlier work
[4] = test system: P. aeruginosa IBRS P001 biofilm; assay: Crystal violet antibiofilm assay (biofilm formation); assay type: cell-based, Pseudomonas aeruginosa; conditions: MIC and sub-MIC, 24 h, crystal violet, Figure 1
Experimental: After incubation, each well was washed twice with sterile PBS (phosphate-buffered saline, pH 7.4) and fixed with methanol for 10 min. After removal of methanol the plate was air-dried. The biofilm was stained with 0.1% crystal violet (Bio-Merieux, Marcy l’Etoile, France) for 30 min. The plate was washed with water, air dried, and the stain was dissolved with 200 μL of 96% ethanol (Zorka, Sabac, Serbia). The absorbance was read at 620 nm on a Multiskan™ FC microplate photometer (Thermo Scientific™, Waltham, MA, USA). The results are presented as biofilm forming capacity (%) compared to control.

[5] = Staphylococcus aureus, MRSA, 24 h
[6] = restated in the discussion for two strains examined
[7] = Staphylococcus aureus, MRSA, 37 °C, 24 h, read-out: MIC
[8] = Staphylococcus aureus, MRSA, subcultivation, 24 h at 37 °C, read-out: MBC

Compound	MIC (S. infantis 1371/1) [µg/mL]	MBC (S. infantis 1371/1) [µg/mL]	MIC (E. coli IBRS E003) [µg/mL]	MBC (E. coli IBRS E003) [µg/mL]	MIC (E. coli IMD989) [µg/mL]	MBC (E. coli IMD989) [µg/mL]	MIC (P. aeruginosa MMA83) [µg/mL]	MBC (P. aeruginosa MMA83) [µg/mL]	MIC (P. aeruginosa IBRS P001) [µg/mL]	MBC (P. aeruginosa IBRS P001) [µg/mL]	IC50 (HaCaT cells) [µg/mL]	MIC (A. baumannii S2/2) [µg/mL]	MBC (A. baumannii S2/2) [µg/mL]	MIC (A. baumannii 6077/12) [µg/mL]	MBC (A. baumannii 6077/12) [µg/mL]	MIC (A. xylosoxidans 37F) [µg/mL]	MBC (A. xylosoxidans 37F) [µg/mL]	MIC (K. pneumoniae Ni9; 37 °C, 24 h) [µg/mL]	MBC (K. pneumoniae Ni9) [µg/mL]	MIC (K. pneumoniae IT977; 37 °C, 24 h) [µg/mL]	other results
O=C(/C=C/c1ccc(O)c(O)c1)O[C@@H]1C[C@](O)(C(=O)O)C[C@@H](O)[C@H]1O [Chlorogenic Acid, chlorogenic acid]	> 1000	> 1000	> 1000	> 1000	> 1000	> 1000	1000 (≈ 2820 µM)	> 1000	500 (≈ 1410 µM)	1000 (≈ 2820 µM)	279 ± 8 (≈ 787 µM)	1000 (≈ 2820 µM)	> 1000	1000 (≈ 2820 µM)	1000 (≈ 2820 µM)	1000 (≈ 2820 µM)	> 1000	> 1000	> 1000	> 1000	MBC [1, 5]: 1000 µg/mL (≈ 2820 µM); MIC [1, 5]: 500 µg/mL (≈ 1410 µM); MIC (K. pneumoniae Ni9; [6]): > 1000 µg/mL; MIC (K. pneumoniae IT977; [6]): > 1000 µg/mL; MBC (K. pneumoniae IT977): > 1000 µg/mL
COc1ccc([C@@H]2CC(=O)c3c(O)cc(O)cc3O2)cc1O [Hesperetin, hesperetin]	> 1000	> 1000	> 1000	> 1000	> 1000	> 1000	1000 (≈ 3310 µM)	1000 (≈ 3310 µM)	500 (≈ 1650 µM)	1000 (≈ 3310 µM)	> 1000	500 (≈ 1650 µM)	500 (≈ 1650 µM)	500 (≈ 1650 µM)	500 (≈ 1650 µM)	1000 (≈ 3310 µM)	1000 (≈ 3310 µM)	1000 (≈ 3310 µM)	1000 (≈ 3310 µM)	> 1000	MIC towards a range of antibiotic-resistant bacterial strains [2]: ≥ 500 µg/mL; MIC [1, 7]: 500 µg/mL (≈ 1650 µM); MBC [1, 8]: 1000 µg/mL (≈ 3310 µM); MIC [3]: ≥ 1000 µg/mL; reduction of biofilm formation (biomass), in words [4]: significant (****, p < 0.0001) reduction; cytotoxicity towards HaCaT, in words (HaCaT cells): non-cytotoxic properties; MBC (K. pneumoniae IT977): > 1000 µg/mL
O=C1C[C@@H](c2ccc(O)cc2)Oc2cc(O)cc(O)c21 [Naringenin, naringenin]	> 1000	> 1000	500 (≈ 1840 µM)	1000 (≈ 3670 µM)	1000 (≈ 3670 µM)	> 1000	1000 (≈ 3670 µM)	1000 (≈ 3670 µM)	250 (≈ 918 µM)	500 (≈ 1840 µM)	528 ± 47 (≈ 1940 µM)	500 (≈ 1840 µM)	500 (≈ 1840 µM)	500 (≈ 1840 µM)	500 (≈ 1840 µM)	1000 (≈ 3670 µM)	1000 (≈ 3670 µM)	250 (≈ 918 µM)	500 (≈ 1840 µM)	1000 (≈ 3670 µM)	MIC ([1]; 37 °C, 24 h): 250 µg/mL (≈ 918 µM); MIC [1, 7]: 250 µg/mL (≈ 918 µM); MBC [1, 8]: 500 µg/mL (≈ 1840 µM); MBC (K. pneumoniae IT977): 1000 µg/mL (≈ 3670 µM)
